Measured values as given in publication PMC11952222, “Development and comparison of single FLT3-inhibitors to dual FLT3/TAF1-inhibitors as an anti-leukemic approach” (PLOS One, 2025).
Several values for one entry are separate records, joined by “and”; a condition that tells them apart may be missing. Identical values can stand only once. Like-named read-outs stand apart in the source and are kept apart here.

Legend:
TAF1(2) bromodomain = target: T1, TAF1(2) bromodomain (Homo sapiens, UniProt P21675); test: Eurofins/DiscoverX KdELECT, TAF1(2) bromodomain IC50; assay type: binding; conditions: 11-point 3-fold dilution, top concentration 10,000 nM
T1 construct: with specific focus on TAF1(2) bromodomain assessed by the KdELECT assay; purchased Eurofins/DiscoverX
T1 sequence (P21675 1519-1628 limits assumed): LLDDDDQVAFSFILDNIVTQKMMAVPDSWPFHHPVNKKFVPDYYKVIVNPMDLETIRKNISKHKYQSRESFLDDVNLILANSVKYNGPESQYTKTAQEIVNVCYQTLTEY
Description: (§1) The 3i-compounds underwent activity testing against a panel of 32 bromodomains using the Eurofins/DiscoverX bromoMAX assay, with specific focus on TAF1(2) bromodomain assessed by the KdELECT assay. In a similar manner, kinase activity was evaluated using a panel of 97 kinase proteins using the Eurofins/DiscoverX scanELECT and KdELECT assays, with specific focus on FLT3 protein. An 11-point 3-fold serial dilution of each test compound was prepared in 100% DMSO at 100x final test concentration and subsequently diluted to final concentration (DMSO 1%). […] Percent control was calculated using the following formula: ((test compound signal – positive control signal)/ (negative control signal – positive control signal)) × 100.

FLT3(D835V) = target: T2, FLT3(D835V) (Homo sapiens, UniProt P36888, D835V); test: Eurofins/DiscoverX cell free kinase assay, percent control; assay type: binding; conditions: for per_control_1000nM FLT3(D835V): 1000 nM compound; for per_control_10000nM FLT3(D835V): 10000 nM compound
T2 construct: purchased Eurofins/DiscoverX
T2 sequence (P36888 27-993 D835V): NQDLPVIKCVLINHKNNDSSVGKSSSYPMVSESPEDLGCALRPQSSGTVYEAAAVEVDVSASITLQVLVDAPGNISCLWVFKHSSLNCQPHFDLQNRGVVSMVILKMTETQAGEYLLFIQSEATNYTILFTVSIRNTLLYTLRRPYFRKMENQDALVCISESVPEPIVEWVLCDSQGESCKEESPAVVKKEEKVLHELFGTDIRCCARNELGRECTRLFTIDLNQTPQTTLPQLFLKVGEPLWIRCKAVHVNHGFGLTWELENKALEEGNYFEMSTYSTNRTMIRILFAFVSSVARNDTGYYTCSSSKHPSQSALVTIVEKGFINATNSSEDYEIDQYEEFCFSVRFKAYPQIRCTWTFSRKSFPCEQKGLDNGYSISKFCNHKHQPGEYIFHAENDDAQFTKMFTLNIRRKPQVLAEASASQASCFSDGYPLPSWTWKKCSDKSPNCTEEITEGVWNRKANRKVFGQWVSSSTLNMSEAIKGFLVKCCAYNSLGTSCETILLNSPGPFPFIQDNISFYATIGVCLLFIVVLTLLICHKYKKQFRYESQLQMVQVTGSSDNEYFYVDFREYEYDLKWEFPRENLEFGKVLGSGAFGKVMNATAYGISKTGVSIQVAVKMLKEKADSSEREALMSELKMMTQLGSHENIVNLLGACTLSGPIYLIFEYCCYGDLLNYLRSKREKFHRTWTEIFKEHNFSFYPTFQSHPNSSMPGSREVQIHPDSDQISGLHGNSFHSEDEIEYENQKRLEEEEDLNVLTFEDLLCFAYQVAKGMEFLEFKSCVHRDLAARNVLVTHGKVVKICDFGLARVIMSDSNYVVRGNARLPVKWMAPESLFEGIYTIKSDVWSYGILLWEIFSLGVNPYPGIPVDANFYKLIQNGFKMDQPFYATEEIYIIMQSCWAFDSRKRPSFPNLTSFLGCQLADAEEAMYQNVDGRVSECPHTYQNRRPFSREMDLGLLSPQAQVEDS
Description: as §1
(§2) Fig 2 Results of 3i-compound series at concentrations of 1 µM and 10 µM in a cell free Eurofins/DiscoverX assay for kinase and bromodomain proteins. (A) Single-targeted compounds with tyrosine kinase activity but without bromodomain activity. (B) Dual-targeted compounds with both tyrosine kinase and bromodomain activity.

FLT3(ITD) = test: as above; assay type: binding; conditions: for per_control_1000nM FLT3(ITD): 1000 nM compound; for per_control_10000nM FLT3(ITD): 10000 nM compound
Description: as §1, §2

FLT3(ITD,D835V) = test: as above; assay type: binding; conditions: for per_control_1000nM FLT3(ITD,D835V): 1000 nM compound; for per_control_10000nM FLT3(ITD,D835V): 10000 nM compound
Description: as §1, §2

FLT3(ITD,F691L) = test: as above; assay type: binding; conditions: for per_control_1000nM FLT3(ITD,F691L): 1000 nM compound; for per_control_10000nM FLT3(ITD,F691L): 10000 nM compound
Description: as §1, §2

KIT = target: T3, KIT (Homo sapiens, UniProt P10721); test: as above; assay type: binding; conditions: for per_control_1000nM KIT: 1000 nM compound; for per_control_10000nM KIT: 10000 nM compound
T3 construct: purchased Eurofins/DiscoverX
Description: as §1, §2

DU4475 cells [1] = test: Cell viability, CellTiter Glo, DU4475; assay type: cell-based; conditions: for IC50: 72h; for CTG normalized_to_DMSO: fraction relative to DMSO
Description: (§3) Drug sensitivity and resistance testing in MOLM13, DU4475, HDQP1, and IGROV1 cells was conducted at the Finnish Institute for Molecular Medicine (FIMM), University of Helsinki. In brief, the effects of compounds on cell viability and cell death were quantified with Cell-Titer Glo (Promega) and CellTox Green (Promega), respectively. Compounds or vehicle control were included in cell culture medium at described concentrations for 72h using an automated liquid dispenser in 384-well format. For KASUMI-1 experiments, cells were grown in 96-well plates and similarly incubated with compounds at indicated concentrations for 72h in RPMI + 10% FCS + Gentamicin, followed by lysis and quantification of cell viability with Cell-Titer Glo (Promega).
(§4) Raw values from viability and toxicity assays were normalized to DMSO and plotted to heat maps in R using pheatmap (RRID:SCR_016418). Dose-response curves were generated using the drc package in R [40]. In brief, nonlinear modelling was performed to calculate IC50 values for each compound where possible and resulting curves from drc and experimental values were plotted using ggplot2 (RRID:SCR_014601).

DU4475 cells [2] = test: Cell toxicity, CellTox Green, DU4475; assay type: cell-based; conditions: CellTox Green relative to DMSO
Description: as §3, §4

c-KIT = target: T4, c-KIT (Homo sapiens, UniProt P10721); test: Eurofins/DiscoverX kinase assay, c-KIT IC50; assay type: binding
T4 construct: purchased Eurofins/DiscoverX
Description: as §1

PDGFRB = target: T5, PDGFRB (Homo sapiens, UniProt P09619); test: Eurofins/DiscoverX kinase assay, PDGFRB IC50; assay type: binding
T5 construct: purchased Eurofins/DiscoverX
Description: as §1

KASUMI-1 cells = test: Cell viability, CellTiter Glo, KASUMI-1; assay type: cell-based; conditions: compared to dual FLT3/TAF1(2) compounds 3i-1103, 3i-1246, 3i-1248
Description: as §3, §4

[3] = kdELECT, read-out: TAF1(2) IC50
[4] = one independent experiment per value, read-out: DU4475 IC50, individual dose-response curve (CellTiter Glo)
[5] = Homo sapiens, DU-4475, 72 h, mean of n = 3 independent experiments, read-out: DU4475 IC50 (CellTiter Glo)
[6] = Homo sapiens, DU-4475, 72 h, one independent experiment per value, read-out: DU4475 IC50, individual dose-response curve (CellTiter Glo)

T3 sequence (P10721 26-976): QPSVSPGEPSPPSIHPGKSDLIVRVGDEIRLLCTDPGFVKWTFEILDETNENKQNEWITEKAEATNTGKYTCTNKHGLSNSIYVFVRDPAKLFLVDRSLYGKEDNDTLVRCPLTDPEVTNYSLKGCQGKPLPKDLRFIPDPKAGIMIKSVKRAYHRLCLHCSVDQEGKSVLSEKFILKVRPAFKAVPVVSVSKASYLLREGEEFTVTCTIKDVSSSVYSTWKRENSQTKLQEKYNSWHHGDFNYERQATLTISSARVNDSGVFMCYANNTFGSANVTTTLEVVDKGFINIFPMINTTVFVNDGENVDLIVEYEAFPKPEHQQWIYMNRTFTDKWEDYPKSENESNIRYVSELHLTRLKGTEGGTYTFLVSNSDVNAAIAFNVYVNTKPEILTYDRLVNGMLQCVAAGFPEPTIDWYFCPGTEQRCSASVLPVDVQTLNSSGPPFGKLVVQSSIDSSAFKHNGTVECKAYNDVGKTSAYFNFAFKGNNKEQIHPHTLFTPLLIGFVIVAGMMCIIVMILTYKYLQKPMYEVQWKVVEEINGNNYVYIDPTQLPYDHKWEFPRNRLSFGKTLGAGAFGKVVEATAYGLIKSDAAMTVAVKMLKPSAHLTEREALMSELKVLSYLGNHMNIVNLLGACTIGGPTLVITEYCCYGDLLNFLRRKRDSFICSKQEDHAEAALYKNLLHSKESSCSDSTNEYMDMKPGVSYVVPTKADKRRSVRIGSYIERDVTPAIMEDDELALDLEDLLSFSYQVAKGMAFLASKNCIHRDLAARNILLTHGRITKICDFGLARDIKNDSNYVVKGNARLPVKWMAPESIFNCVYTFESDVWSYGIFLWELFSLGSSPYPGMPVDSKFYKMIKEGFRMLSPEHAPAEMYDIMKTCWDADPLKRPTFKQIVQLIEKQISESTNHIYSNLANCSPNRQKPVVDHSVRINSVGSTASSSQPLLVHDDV
T4 sequence (P10721 26-976): as above
T5 sequence (P09619 33-1106): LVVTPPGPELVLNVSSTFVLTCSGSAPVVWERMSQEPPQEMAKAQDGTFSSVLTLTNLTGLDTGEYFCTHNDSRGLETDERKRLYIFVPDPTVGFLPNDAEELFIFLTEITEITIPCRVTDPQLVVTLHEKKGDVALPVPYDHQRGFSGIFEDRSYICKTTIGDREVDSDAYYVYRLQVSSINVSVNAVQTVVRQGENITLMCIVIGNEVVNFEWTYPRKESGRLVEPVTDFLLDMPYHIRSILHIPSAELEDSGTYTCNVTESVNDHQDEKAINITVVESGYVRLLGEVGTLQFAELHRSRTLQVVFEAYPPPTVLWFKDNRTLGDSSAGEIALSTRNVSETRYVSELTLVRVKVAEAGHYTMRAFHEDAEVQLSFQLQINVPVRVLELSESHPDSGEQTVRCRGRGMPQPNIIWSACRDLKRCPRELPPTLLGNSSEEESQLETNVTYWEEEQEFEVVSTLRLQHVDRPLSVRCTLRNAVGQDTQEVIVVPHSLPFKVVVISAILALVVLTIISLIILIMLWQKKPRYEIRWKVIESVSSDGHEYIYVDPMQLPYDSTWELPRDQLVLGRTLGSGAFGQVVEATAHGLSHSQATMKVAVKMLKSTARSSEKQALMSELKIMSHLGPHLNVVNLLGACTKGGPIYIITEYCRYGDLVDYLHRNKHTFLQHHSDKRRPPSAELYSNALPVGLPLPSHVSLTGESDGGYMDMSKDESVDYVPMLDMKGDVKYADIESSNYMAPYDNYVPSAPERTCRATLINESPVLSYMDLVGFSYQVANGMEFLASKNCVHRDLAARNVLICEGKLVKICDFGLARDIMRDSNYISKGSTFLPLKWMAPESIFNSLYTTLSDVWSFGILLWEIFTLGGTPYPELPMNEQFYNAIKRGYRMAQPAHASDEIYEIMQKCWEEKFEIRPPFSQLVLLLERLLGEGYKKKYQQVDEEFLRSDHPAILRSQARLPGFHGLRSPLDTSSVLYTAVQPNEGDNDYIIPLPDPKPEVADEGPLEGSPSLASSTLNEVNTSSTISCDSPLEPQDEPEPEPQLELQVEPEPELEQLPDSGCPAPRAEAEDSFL

Row | IC50 (TAF1(2) bromodomain; [3]) | SMILES | per_control_1000nM FLT3(D835V) (FLT3(D835V)) [percent control] | per_control_10000nM FLT3(D835V) (FLT3(D835V)) [percent control] | per_control_1000nM FLT3(ITD) (FLT3(ITD)) [percent control] | per_control_10000nM FLT3(ITD) (FLT3(ITD)) [percent control] | per_control_1000nM FLT3(ITD,D835V) (FLT3(ITD,D835V)) [percent control] | per_control_10000nM FLT3(ITD,D835V) (FLT3(ITD,D835V)) [percent control] | per_control_1000nM FLT3(ITD,F691L) (FLT3(ITD,F691L)) [percent control] | per_control_10000nM FLT3(ITD,F691L) (FLT3(ITD,F691L)) [percent control] | per_control_1000nM KIT (KIT) [percent control] | per_control_10000nM KIT (KIT) [percent control] | IC50 (DU4475 cells [1]; [4]) | IC50 (DU4475 cells [1]; [5]) [µM] | IC50 (DU4475 cells [1]; [6]) [µM] | further results
1 | 480 nM | COc1ccc(-c2cc(NC(=O)c3ccc(C(C)(C)C)cc3)[nH]n2)cc1 [Compound 3i-1103] | 0.9 | 0 | 1.2 | 2.1 | 42 | 6 | 38 | 9.4 | 0 | 0 | 18.2 µM and 19 µM | 19.8 | 22.1 | CTG normalized_to_DMSO (DU4475 cells [1]; DU4475, exp 1, 0.3 µM): 1.0025; CTG normalized_to_DMSO (DU4475 cells [1]; DU4475, exp 1, 1 µM): 0.9677; CTG normalized_to_DMSO (DU4475 cells [1]; DU4475, exp 1, 3 µM): 0.8934; CTG normalized_to_DMSO (DU4475 cells [1]; DU4475, exp 1, 10 µM): 0.6779; CTG normalized_to_DMSO (DU4475 cells [1]; DU4475, exp 1, 30 µM): 0.07396; CTX normalized_to_DMSO (DU4475 cells [2]; DU4475, exp 1, 0.3 µM): 1.007; CTX normalized_to_DMSO (DU4475 cells [2]; DU4475, exp 1, 1 µM): 0.9954; CTX normalized_to_DMSO (DU4475 cells [2]; DU4475, exp 1, 3 µM): 0.9628; CTX normalized_to_DMSO (DU4475 cells [2]; DU4475, exp 1, 10 µM): 0.9392; CTX normalized_to_DMSO (DU4475 cells [2]; DU4475, exp 1, 30 µM): 0.7319
2 | 5.1 nM | Cn1cc(-c2cc(NC(=O)c3ccc(C(C)(C)C)cc3)n[nH]2)ccc1=O [Compound 3i-1248, 4-(tert-butyl)-N-(5-(1-methyl-6-oxo-1,6-dihydropyridin-3-yl)-1H-pyrazol-3-yl)benzamide] | 1.3 | 0.7 | 0 | 12 | 5.3 | 0.15 | 29 | 1.9 | 8.2 | 0.1 | 9.8 µM and 9.5 µM | 9.4 | 8.8 | 
3 |  | CC(C)(C)c1ccc(C(=O)Nc2cc(-c3ccccc3)n[nH]2)cc1 [Compound 3i-1247, 4-(tert-butyl)-N-(3-phenyl-1H-pyrazol-5-yl)benzamide] | 2.5 | 0 | 3.2 | 12 | 11 | 0.3 | 9.7 | 0.1 | 0 | 0 | 2.5 µM and 2.9 µM and 2.7 µM |  |  | IC50 (TAF1(2) bromodomain; TAF1(2) IC50, kdELECT): > 10000 nM; IC50 (c-KIT): 8.5 nM; IC50 (PDGFRB): 3.4 nM; activity in DU4475 cells (DU4475 cells [1]; compared to dual FLT3/TAF1(2) inhibitors 3i-1103, 3i-1246, 3i-1248): superior activity; anti-proliferative activity in KASUMI-1 cells (KASUMI-1 cells): superior anti-proliferative activity

Row | SMILES | IC50 (TAF1(2) bromodomain; [3]) | per_control_1000nM FLT3(D835V) (FLT3(D835V)) [percent control] | per_control_10000nM FLT3(D835V) (FLT3(D835V)) [percent control] | per_control_1000nM FLT3(ITD) (FLT3(ITD)) [percent control] | per_control_10000nM FLT3(ITD) (FLT3(ITD)) [percent control] | per_control_1000nM FLT3(ITD,D835V) (FLT3(ITD,D835V)) [percent control] | per_control_10000nM FLT3(ITD,D835V) (FLT3(ITD,D835V)) [percent control] | per_control_1000nM FLT3(ITD,F691L) (FLT3(ITD,F691L)) [percent control] | per_control_10000nM FLT3(ITD,F691L) (FLT3(ITD,F691L)) [percent control] | per_control_1000nM KIT (KIT) [percent control] | per_control_10000nM KIT (KIT) [percent control] | IC50 (DU4475 cells [1]; [4]) | IC50 (DU4475 cells [1]; [5]) [µM] | IC50 (DU4475 cells [1]; [6]) [µM] | further results
4 | Cc1cc(-c2cc(NC(=O)c3ccc(C(C)(C)C)cc3)[nH]n2)ccn1 [Compound 3i-1246, 4-(tert-butyl)-N-(3-(2-methylpyridin-4-yl)-1H-pyrazol-5-yl)benzamide] | 280 nM and 260 nM | 0.5 | 0.55 | 2.7 | 1.2 | 0.55 | 0.2 | 3.3 | 1.6 | 0 | 0 | 7.6 µM and 7.8 µM | 7.5 | 7.1 | 
